Several values for one entry are separate records, joined by “and”; a condition that tells them apart may be missing. Identical values can stand only once. Entries after “also recorded” stand apart in the source; their conditions may differ. Positions of bridges follow the written chain, without caps; N, C: chain ends. Non-standard residues stand in square brackets, D forms with d. Residues, ends and D or L forms follow the SMILES beside them. S5 = C=CCCC[C@](C)(N)C(=O)O
Assays:
[1] = system: MUC5AC secretion from primary human airway epithelial (HAE) cells; test: Mucin-secretion assay in HAE cells; settings: 10 μM peptide 30 min; for ratio of experimental to baseline MUC5AC secretion, mean: mean of n = 4–5 ALI cultures
[2] = biological target: Syt1 C2B(QM) quintuple mutant (Rattus norvegicus, UniProt P21707, E295A/R281A/R398A/R399A/Y338W); test: Bulk fluorescence anisotropy binding; settings: Cy3-labelled SP9, fluorescence anisotropy
Chain of Syt1 C2B(QM) quintuple mutant (P21707 271-421 R281A/E295A/Y338W/R398A/R399A): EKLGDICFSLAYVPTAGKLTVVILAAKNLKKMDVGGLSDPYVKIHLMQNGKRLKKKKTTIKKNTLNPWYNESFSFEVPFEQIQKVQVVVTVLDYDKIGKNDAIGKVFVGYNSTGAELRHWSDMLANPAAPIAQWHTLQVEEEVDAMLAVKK

[3] = biological target: airway SNAREs, Syt2, Munc13-2*, Munc18-2, NSF and αSNAP (Rattus norvegicus, UniProt P29101); test: Single-vesicle content mixing assay, complete reconstitution; assay type: biochemical
Chain of airway SNAREs, Syt2, Munc13-2*, Munc18-2, NSF and αSNAP (P29101 whole entry): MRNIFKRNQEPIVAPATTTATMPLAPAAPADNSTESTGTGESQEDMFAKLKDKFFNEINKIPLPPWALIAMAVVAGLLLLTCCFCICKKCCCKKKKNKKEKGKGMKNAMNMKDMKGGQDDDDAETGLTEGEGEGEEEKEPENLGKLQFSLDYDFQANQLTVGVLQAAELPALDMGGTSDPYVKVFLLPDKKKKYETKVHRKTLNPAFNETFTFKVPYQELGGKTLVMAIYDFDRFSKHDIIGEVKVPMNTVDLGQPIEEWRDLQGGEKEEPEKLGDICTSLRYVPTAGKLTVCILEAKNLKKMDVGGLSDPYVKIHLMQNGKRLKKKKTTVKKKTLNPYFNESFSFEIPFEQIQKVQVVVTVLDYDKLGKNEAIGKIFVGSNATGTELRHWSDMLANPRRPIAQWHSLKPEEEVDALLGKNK
Protocol: For the complete reconstitution (Fig. 3), to form airway SM vesicles with reconstituted Stx3–Munc18-2 complex, we added the ‘disassembly factors’ (1 μM Munc18-2, 0.5 μM NSF, 5 μM αSNAP, 3 mM ATP and 3 mM Mg^2+) to tethered airway PM vesicles (Fig. 3b), according to previous work with neuronal proteins. This procedure results in tethered SM vesicles.

[4] = biological target: reconstituted airway epithelial SNAREs (Stx3, SNAP-23, VAMP8) and Syt2 (Rattus norvegicus, UniProt P29101); test: Single-vesicle content mixing assay, simple reconstitution (SR); settings: for Ca2+ independent fusion per sec: ED Fig 7d
Chain of reconstituted airway epithelial SNAREs (Stx3, SNAP-23, VAMP8) and Syt2 (P29101 whole entry, the tested form may be a part): as the sequence (P29101 whole entry) above

[5] = CD spectroscopy, α-helical content; assay type: physicochemical; settings: 100 μM peptide in PBS pH 7.4, [φ]222obs relative to model helical decapeptide
Protocol: CD spectra were measured using the AVIV stop-flow CD spectropolarimeter at 190–250 nm using a cell with a 1 mm path length. […] For the correction of the baseline error, the signal from a blank run with PBS buffer was subtracted from all the experimental spectra. The α-helical content of each peptide was calculated by dividing the mean residue ellipticity [φ]222obs by the reported [φ]222obs for a model helical decapeptide.

airway SNAREs alone = test: Single-vesicle content mixing assay, airway SNAREs alone (VAMP8 vesicles); settings: for Ca2+ independent fusion per sec: ED Fig 7k
neuronal SNAREs alone = test: Single-vesicle content mixing assay, neuronal SNAREs alone (VAMP2 vesicles); assay type: biochemical
[6] = system: reconstituted neuronal SNAREs (Stx1A, SNAP-25A, VAMP2) and Syt1; test: Single-vesicle content mixing assay, neuronal SNAREs and Syt1; assay type: biochemical
airway lumenal mucus = test: Airway lumenal mucus occlusion in peptide-treated mice; settings: IL-13 metaplasia, 200 μM peptide by microsprayer 30 min before methacholine; sections at 500 µm intervals; each value one mouse
[7] = biological target: SP9–Cy3 (hydrocarbon-stapled SNAP-25A fragment SP9 labelled with Cy3 at the C terminus); test: fluorescence polarisation; bulk fluorescence anisotropy; 10 nM Cy3-labelled peptide mixed with varying concentrations of unlabelled C2B domain; TBS (20 mM Tris, pH 7.5, 150 mM NaCl, 0.5 mM TCEP), 27.2 °C; Hill equation fit with the Hill coefficient constrained to 1
[8] = 10 μM peptide, each value one repeat experiment

Chain of Syt2 C2B (C2B domain of synaptotagmin-2, amino acid range 272–422) (P29101 272-422): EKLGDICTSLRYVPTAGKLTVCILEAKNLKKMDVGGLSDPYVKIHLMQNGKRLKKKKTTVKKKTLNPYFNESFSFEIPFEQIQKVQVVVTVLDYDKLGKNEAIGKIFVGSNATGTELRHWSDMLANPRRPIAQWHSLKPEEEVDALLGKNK
Chain of Syt1 C2B (C2B domain of synaptotagmin-1, amino acid range 271–421) (P21707 271-421): as the sequence (P21707 271-421 R281A/E295A/Y338W/R398A/R399A) above, with A11R, A25E, W68Y, A128R, A129R counted along it

With `CC[C@H](C)[C@H](NC(=O)[C@]1(C)CCCC=CCCC[C@](C)(NC(=O)[C@H](CCC(=O)O)NC(=O)[C@H](CCC(=O)O)NC(C)=O)C(=O)N[C@@H](CCCCN)C(=O)N[C@@H](CC(=O)O)C(=O)N[C@@H](C)C(=O)N1)C(=O)N[C@@H](CCCNC(=N)N)C(=O)N[C@@]1(C)CCCC=CCCC[C@@](C)(C(=O)N[C@@H](CC(=O)O)C(=O)N[C@@H](CCC(=O)O)C(=O)N[C@@H](CCC(N)=O)C(=O)N[C@@H](CS)C(N)=O)NC(=O)[C@H](CCSC)NC(=O)[C@H](C(C)C)NC(=O)[C@H](CC(C)C)NC1=O` [SP9] (Ac-EE[S5]KDA[S5]IR[S5]LVM[S5]DEQC-NH2; staple 3-7, 10-14) the “ratio of experimental to baseline MUC5AC secretion, mean” value ([1]; IL13+ATP (100 µM ATP)) was 3.4860, the “ratio of experimental to baseline MUC5AC secretion, mean” value ([1]; IL13, no ATP) was 0.7820 and the “ratio of baseline to reference wash MUC5AC secretion, mean” value ([1]; IL-13 cultures, mean of n = 8–10 ALI cultures) was 0.7120. For the same molecule, the “binding to quintuple mutant Syt1 C2B(QM)” value [2] was “does not bind”, the “effect on Ca2+-independent fusion probability” value ([3]; 10 μM SP9) was “only moderately reduced; also recorded: relatively modest” and the “effect on Ca2+-triggered fusion amplitude, cumulative fusion probability and synchronization” value ([3]; 10 μM SP9, 50 μM and 500 μM Ca2+) was “strongly inhibited”. For the same molecule, the “Ca2+ independent fusion per sec (average probability)” value ([3]; 10 μM SP9, each value one repeat experiment) was 0.0004902 and 0.0004307 and 0.0004714 and 0.0004646 and 0.0003557 and 0.0002469, the Vesicle association ([3]; 10 μM SP9 added with SG vesicles, each value one repeat experiment) was 88 and 78 and 74 and 91 and the “decrease in the Ca2+-triggered fusion amplitude” value ([3]; 10 μM SP9 vs no peptide) was “eight to tenfold decrease”. The “effect on vesicle association” value ([3]; 10 μM SP9 vs no peptide) was “no effect”, the “triggered fusion accumulative probability (within 1 min)” value ([3]; 50uM Ca2+, 10 μM SP9, each value one repeat experiment) was 0.0662 and 0.06402 and 0.09074 and the “triggered fusion accumulative probability (within 1 min)” value ([3]; 500uM Ca2+, 10 μM SP9, each value one repeat experiment) was 0.08824 and 0.05943 and 0.07879. For the same molecule, the “Ca2+ independent fusion per sec (average probability)” value ([4]; 10 μM peptide added with SG vesicles, each value one repeat experiment) was 0.0006901 and 0.0004797 and 0.000382 and 0.0006421, the “effect on Ca2+-independent fusion probability and Ca2+-triggered cumulative fusion probability” value ([4]; 10 µM peptide vs no peptide) was “reduced both Ca^2+-triggered and, to a lesser degree, Ca^2+-independent fusion” and the “Ca2+ independent fusion per sec” value ([4]; repeat 1) was 0.0006901. For the same molecule, the “Ca2+ independent fusion per sec” value ([4]; repeat 2) was 0.0004797, the “Ca2+ independent fusion per sec” value ([4]; repeat 3) was 0.000382 and the “Ca2+ independent fusion per sec” value ([4]; repeat 4) was 0.0006421. For the same molecule, the “effect on vesicle association” value ([4]; SP9 vs no peptide) was “no effect”, the helicity in solution [5] was “substantial helical content” and the “Ca2+ independent fusion per sec” value (airway SNAREs alone; repeat 1) was 0.0003451. For the same molecule, the “Ca2+ independent fusion per sec” value (airway SNAREs alone; repeat 2) was 0.000303, the “Ca2+ independent fusion per sec” value (airway SNAREs alone; repeat 3) was 0.0004574 and the “Ca2+ independent fusion per sec” value (airway SNAREs alone; repeat 4) was 0.0004141. For the same molecule, the “effect on vesicle fusion without Syt2 (VAMP8 vesicles)” value (airway SNAREs alone; SP9 vs no peptide) was “no effect; also recorded: inhibitory effect of SP9 was eliminated”, the “Ca2+ independent fusion per sec (average probability)” value (neuronal SNAREs alone; [8]) was 0.0007718 and 0.0006567 and 0.001053 and 0.0009453 and the Vesicle association (neuronal SNAREs alone; [8]) was 135 and 160 and 137. The “effect on vesicle fusion without Syt1 (VAMP2 vesicles)” value (neuronal SNAREs alone; SP9 vs no peptide) was “no effect; also recorded: little effect”, the Vesicle association ([6]; 10 μM peptide added with SV vesicles, each value one repeat experiment) was 248 and 327 and 271 and the “effect on Ca2+-triggered and Ca2+-independent fusion” value ([6]; SP9 vs no peptide) was “reduced both Ca^2+-triggered fusion and Ca^2+-independent fusion”. For the same molecule, the “effect on vesicle association” value ([6]; SP9 vs no peptide) was “no effect”.

In the case of Ac-EESKDAGIRTLVMLDEQ-NH2 [P9], the “sum of lumenal mucus cross-sectional area, caudal lobe of the right lung” value (airway lumenal mucus) is reported as 0.382 and 0.464 and 0.617 and 0.201 and 0.286 and 0.712 and 0.372.

Work on “Syt1 C2B (C2B domain of synaptotagmin-1, amino acid range 271–421) (from UniProt P21707 271-421) (domain or fragment)” yielded a Kd [7] of 24 µM.

For “Syt2 C2B (C2B domain of synaptotagmin-2, amino acid range 272–422) (from UniProt P29101 272-422) (domain or fragment)”, the Kd [7] was 35 µM.

— publication PMC8967716, “Inhibition of calcium-triggered secretion by hydrocarbon-stapled peptides” (Nature, 2022)
